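Test compounds were applied to cells in 96-well plates for 48 hours at 5 doses. At the GI50, growth is halved.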 Active and inactive are the calls of the source. Rule as the data show it: active = GI50 up to about 1.1 µM and inactive = higher.
Key:
Experiment in all cases: DTP human tumour cell line panel, 48 h
786-0 = tested on: 786-0
A549 = tested on: A549
ACHN = tested on: ACHN
BT-549 = tested on: BT-549
CCRF-CEM = tested on: CCRF-CEM
DU-145 = tested on: DU-145
K562 = tested on: K562
M19-MEL = tested on: M19-MEL
MDA-N = tested on: MDA-N
MOLT-4 = tested on: MOLT-4
NCI-H226 = tested on: NCI-H226
OVCAR-4 = tested on: OVCAR-4
RPMI-8226 = tested on: RPMI-8226
RXF 393 = tested on: RXF 393
SF-268 = tested on: SF-268
SF-295 = tested on: SF-295
SNB-75 = tested on: SNB-75
SR = tested on: SR
SW-620 = tested on: SW-620
UO-31 = tested on: UO-31

| SMILES | GI50 (786-0) | GI50 (A549) | GI50 (ACHN) | GI50 (BT-549) | GI50 (CCRF-CEM) | GI50 (DU-145) | GI50 (K562) | GI50 (M19-MEL) | GI50 (MDA-N) | GI50 (MOLT-4) | GI50 (NCI-H226) | GI50 (OVCAR-4) | GI50 (RPMI-8226) | GI50 (RXF 393) | GI50 (SF-268) | GI50 (SF-295) | GI50 (SNB-75) | GI50 (SR) | GI50 (SW-620) | GI50 (UO-31) |
| --- | --- | --- | --- | --- | --- | --- | --- | --- | --- | --- | --- | --- | --- | --- | --- | --- | --- | --- | --- | --- |
| CN(C)CC1CC/C(=C\c2ccc(O)cc2)C1=O (stereo not drawn) | 2.16 µM (inactive) | 19 µM (inactive) | 3.51 µM (inactive) | 2.06 µM (inactive) | 0.933 µM (active) | 16.1 µM (inactive) | 0.975 µM (active) | 2.78 µM (inactive) | 2.71 µM (inactive) | 1.69 µM (inactive) | 10.4 µM (inactive) | 7.38 µM (inactive) | 1.02 µM (active) | 2.07 µM (inactive) | 9.62 µM (inactive) | 19.2 µM (inactive) | 11 µM (inactive) | 0.931 µM (active) | 2.33 µM (inactive) | 12.9 µM (inactive) |
| C/C(=N\N=C(/S)N(C)C)c1cccc[n+]1[O-] | 28.6 µM (inactive) | 59.7 µM (inactive) | 38.2 µM (inactive) | 49.9 µM (inactive) | 0.565 µM (active) | 59 µM (inactive) | 0.631 µM (active) | > 100 µM (inactive) | 95.1 µM (inactive) | 0.914 µM (active) | 54.6 µM (inactive) | 46.8 µM (inactive) | 3.62 µM (inactive) | 65.3 µM (inactive) | 38.2 µM (inactive) | 39.6 µM (inactive) | 93.1 µM (inactive) | 1.23 µM (inactive) | 22.3 µM (inactive) | 23.2 µM (inactive) |
| O=C1C=C(Br)C(=O)C12CCc1ccccc12 (stereo not drawn) | 11.9 µM (inactive) | 23.5 µM (inactive) | 11.5 µM (inactive) | 17.9 µM (inactive) | 2.66 µM (inactive) | 16.2 µM (inactive) | 2.52 µM (inactive) | 19 µM (inactive) | 16.5 µM (inactive) | 2.43 µM (inactive) | 18.3 µM (inactive) | 24.7 µM (inactive) | 3.05 µM (inactive) | 9.14 µM (inactive) | 22.3 µM (inactive) | 18.6 µM (inactive) | 13.6 µM (inactive) | 3.27 µM (inactive) | 4.4 µM (inactive) | 18.5 µM (inactive) |
| CCP(C)(=O)CC | > 100 µM (inactive) | > 100 µM (inactive) | > 100 µM (inactive) |  | > 100 µM (inactive) |  | > 100 µM (inactive) | > 100 µM (inactive) |  | > 100 µM (inactive) | > 100 µM (inactive) | > 100 µM (inactive) | > 100 µM (inactive) | > 100 µM (inactive) | > 100 µM (inactive) | > 100 µM (inactive) | > 100 µM (inactive) | > 100 µM (inactive) | > 100 µM (inactive) | > 100 µM (inactive) |
| N#CC(NNC(=O)c1ccccc1O)c1ccc(O)cc1 (stereo not drawn) | 8.02 µM (inactive) | 2.74 µM (inactive) | 2.33 µM (inactive) |  | 4.93 µM (inactive) |  | 3.1 µM (inactive) | 5.38 µM (inactive) |  | 4.17 µM (inactive) | 3.21 µM (inactive) | 13.1 µM (inactive) | 10.2 µM (inactive) | 1.48 µM (inactive) | 1.79 µM (inactive) | 4.38 µM (inactive) | 1.24 µM (inactive) | 2.8 µM (inactive) | 26.7 µM (inactive) | 2.3 µM (inactive) |
| O=C(CC(=O)n1nc(-c2ccccc2)c(/N=N/c2ccccc2Cl)c1-c1ccccc1)Nc1ccc(Cl)cc1 | > 52.7 µM (inactive) | > 54.1 µM (inactive) | > 100 µM (inactive) |  | > 44.9 µM (inactive) |  | > 53.1 µM (inactive) | 21.7 µM (inactive) |  | > 100 µM (inactive) | > 100 µM (inactive) | > 100 µM (inactive) | > 49.3 µM (inactive) | > 100 µM (inactive) | > 100 µM (inactive) | > 100 µM (inactive) | > 100 µM (inactive) | > 100 µM (inactive) | > 48.6 µM (inactive) | > 100 µM (inactive) |
| CN(CO)c1nc(N(C)CO)nc(N(C)CO)n1 [TRIMELAMOL] | 24.2 µM (inactive) | 12.8 µM (inactive) | 27.5 µM (inactive) | 20.9 µM (inactive) | 5.78 µM (inactive) | 25.7 µM (inactive) | 18.7 µM (inactive) | 8.04 µM (inactive) | 20.6 µM (inactive) | 27.2 µM (inactive) |  |  | 3.98 µM (inactive) | 11.6 µM (inactive) |  | 26.8 µM (inactive) | 18.5 µM (inactive) | 39.6 µM (inactive) | 3.51 µM (inactive) | 19 µM (inactive) |
